Measured values: patent US20080234345A1, “METHOD FOR REDUCING OR ALLEVIATING INFLAMMATION IN THE DIGESTIVE TRACT” (Gene Logic Inc., priority 2006, published 2008)

Key:
[1] = test system: NF-κB dependent transcription; experiment: TNFα-induced activation of NF-κB in recombinant HeLa reporter cells (luciferase); assay type: cell-based
Description: To test the ACE2 inhibitor GL1001 for anti-inflammatory activity relevant to IBD, effects of the compound on activation of NF-κB dependent transcription by TNFα were examined in recombinant reporter cells containing a construct with a luciferase reporter gene under control of NF-κB dependent regulatory sequences, thereby allowing detection of NF-κB dependent transcription by measuring reporter enzyme using a conventional luciferase activity assay based on detection of generated light.
In particular, HeLa cells (American Type Culture Collection) were grown in Dulbecco's modified Eagles medium (DMEM) supplemented with 10% fetal calf serum and transiently transfected with an NF-κB-luc construct (Stratagene, Inc.), as follows (with all incubation steps at 37 C unless otherwise indicated). Cells were seeded and grown to about 70% confluency in a 10 cm cell culture dish. Plasmid DNA (10 μg) was added to 1 ml serum free DMEM media in a tube. Fugene 6 transfection reagent (30 μl) (Roche) was then pipetted slowly into the tube and the contents were gently mixed by inversion. The mixture was incubated at room temperature for 15 minutes and then added dropwise to cells in one 10 cm dish. Following incubation for 24 hours, cells were detached from the plate with Trypsin-EDTA (Gibco-BRL), transferred to wells in a clear-bottom white 96-well test plate (Fisher) with 100 μl per well serum free DMEM, at a density of 3×10^4 cells per well, and allowed to attach overnight. Compound (GL1001) was then added to wells at a concentration of approximately 0, 0.008, 0.04, 0.2, 1.0 or 5.0 μM, followed immediately by addition of TNFα (R&D) to a final concentration of 20 ng/ml. After incubation for 6 hours, 100 μl of Bright-Glo Luciferase buffer (Promega, Cat# E2610) was added, and the plate was incubated at room temperature, with mild shaking, for 10 min. Bioluminescence was then measured using a Veritas luminometer (Turner BioSystems). Each plotted data point represents the average bioluminescence of 4 independent wells.

[2] = test system: activator protein-1 (AP-1); experiment: Basal in vivo reporter luciferase expression in AP-1::Luc mice; settings: AP-1::Luc mice (data not shown)
[3] = test system: dextran sulfate sodium (DSS) induced colitis in mice; experiment: DSS induced colitis in NF-κB::Luc mice (Example 5); assay type: in vivo; settings: 100 mg/kg s.c. per day
Description: GL1001 was further tested for in vivo anti-inflammatory activity by examining its effects on dextran sulfate sodium (DSS) induced colitis in mice. […] See, e.g., Hollenbach et al. (2004) FASEB J. 18(13):1550-1552. See also Bryne et al. (2006), Current Opinion in Drug Discovery & Development 8(2):207-217 and sources cited therein. These pathologies include predominant left-sided colonic inflammation, prominent regeneration of the colonic mucosa cells with dysplasia leading to colon cancer, shortening of the large intestine, focal crypt damage, and frequent lymphoid hyperplasia in both biological systems. Further, according to Hollenbach et al (2004), supra, DSS-induced colitis in mice has a high value in assessing the efficacy of therapeutic agents commonly used in the treatment of colitis, since all therapeutically beneficial substances in human IBD were also shown to reduce the disease activity in this mouse model.
The study was designed with three groups: control (5 mice), 2.5% DSS alone (10 mice), and 2.5% DSS with GL1001 treatment (100 mg/kg subcutaneously per day) (10 mice). NF-κB::Luc mice were used to measure NF-κB activation as an indicator of inflammatory activity, as described above. In particular, organ specific luciferase activity was measured, in addition to body weight, fluid intake, occult fecal blood, organ weights and neutrophil infiltration (MPO assay). NF-κB::luc BL/6 albino background mice of 6-8 weeks of age were provided with 2.5% dextran sodium sulfate (DSS, MW 40,000; MP Biomedicals) in the drinking water. Mice were weighed, imaged and dosed with GL1001 daily. Fecal samples were collected from the bottom of the cages for each treatment group and tested for fecal consistency and occult blood using Hemocult Tape as directed by the manufacturer (Fisher Scientific) and fluid consumption was measured. At the conclusion of the study, the GI tract was removed, the various sections were cleaned and weighed, tissue samples were prepared for bioluminescent assays and myeloperoxidase (Myeloperoxidase assay kit, Cytostore) to look at neutrophil infiltration.
The mice were weighed and imaged at the time of daily GL1001 or vehicle control administration. Biophotonic images of the mice were acquired each day, as described above, with quantitative abdominal imaging results shown in FIG. 7. […] Water consumption was monitored for all of the animals and similar consumption rates indicate that DSS treated mice were all receiving similar amounts of DSS (FIG. 8).
Inflammatory bowel disease progression was monitored using an inflammatory bowel disease activity index which consists of the sum of percent weight loss, stool consistency and occult fecal blood divided by 3.

[4] = test system: DSS-induced NF-κB signaling; experiment: Subsequent DSS study in NF-κB::Luc mice, oral gavage; assay type: in vivo; settings: 300 mg/kg/day, twice daily by oral gavage; 2.5% DSS
Description: In a subsequent study in NF-κB::Luc mice, 2.5% DSS treatment tended to increase NF-κB signaling, as measured by luciferase expression, in distal colon and mesenteric lymph tissues, although these increases were generally not statistically significant. […] Reasons for lack of effect of GL1001 in this study are not fully understood at present.

[5] = test system: DSS-induced colitis in Balb/c mice; experiment: DSS-induced histological effects in colon of Balb/c mice (Example 6); assay type: in vivo
Procedure: A study was designed with five groups of Balb/c mice: naïve control, DSS followed by vehicle, DSS followed by dexamethasone 3 mg/kg/day, DSS followed by GL1001 10 mg/kg/day, and DSS followed by GL1001 100 mg/kg/day. Administration of DSS was via drinking water (DSS 5% in water), from day 0 to day 7 of the study. […] Administration of vehicle, dexamethasone and GL1001 was subcutaneous, once daily, from day 7 until termination of the study (day 14).
At termination of the study, samples from proximal, transverse and distal portions of the colon of each animal were collected for histological analysis, which included: • (a) inflammation score (0-5), based on leukocyte infiltration in mucosa and submucosa, crypt abcess and edema; • (b) glandular score (0-5), based on crypt destruction (crypts function to produce mucin and generate epithelium); and • (c) erosion score (0-5), based on integrity of epithelium or degree of ulceration thereof. A total histopathological score was obtained by adding the scores from (a), (b) and (c) above.

[6] = GL1001 100 mg/kg/day s.c. once daily

Compound: CC(C)C[C@H](N[C@@H](Cc1cncn1Cc1cc(Cl)cc(Cl)c1)C(=O)O)C(=O)O [GL1001, (S,S)-2-[1-carboxy-2-[3-(3,5-dichlorobenzyl)-3H-imidazol-4-yl]-ethylamino]-4-methylpentanoic acid]
- inhibition of TNFα induced activation of NF-κB dependent transcription ([1]; 8 nM GL1001, TNFα 20 ng/ml, 6 hours): over 80%
- maximal inhibition of TNFα induced activation of NF-κB dependent transcription ([1]; 0.2 μM GL1001, TNFα 20 ng/ml, 6 hours): over 95%
- TNFα induced activation of NF-κB dependent transcription ([1]; all tested concentrations (0.008-5.0 μM)): significantly inhibited
- basal in vivo levels of reporter luciferase expression [2]: no significant effect
- inflammatory bowel disease activity index ([3]; between days 3 and 8): slight delay
- reduction in body weight ([3]; between days 4 and 9, vs DSS only): significantly delayed
- NF-κB-driven luciferase expression, abdominal imaging, DSS only vs DSS+GL1001 ([3]; from study day 6): non-statistically significant divergence
- DSS induced organ weight increases (organ weight/body weight ratio) ([3]; cecum and large intestine (colon)): completely prevented
- DSS-induced NF-κB signaling (luciferase expression) [4]: did not lower
- histological effect ([5]; GL1001 10 mg/kg/day s.c.): No significant histological effect
- micrograph of distal colon section (FIG. 14) ([5]; GL1001 100 mg/kg s.c. once daily, one animal): Inflammation and gland loss are mild, and no erosion is seen
- erosion score, distal colon [5, 6]: significantly reduced
- glandular score, distal colon [5, 6]: significantly reduced
- inflammation score, distal colon [5, 6]: significantly reduced
- total histopathological score, distal colon [5, 6]: significantly reduced
- disease activity (based on fecal samples) ([5]; s.c. once daily day 7-14, dexamethasone 3 mg/kg/day, GL1001 10 and 100 mg/kg/day): No significant improvement
